Measurements: patent publication US20230243822A1, “MOLECULAR DISEASE PROFILE AND USE THEREOF FOR MONITORING AND TREATING RHEUMATAOID ARTHRITIS” (JANSSEN BIOTECH, INC., priority 2020, published 2023)

Tests used:
RA patients = details: RA patients; cited from earlier work
[1] = system: 4-analyte M-DP panel (CRP, CXCL10, CXCL13, SAA); assay: Pharmacodynamic M-DP score, 4-analyte panel CRP, CXCL10, CXCL13, SAA (SOMAscan), clinical studies in RA; assay type: in vivo, human; details: for M-DP score mean difference ± SD, Good vs. No / M-DP score mean ± SD, DAS28-CRP response group Good / M-DP score mean ± SD, DAS28-CRP response group Moderate / M-DP score mean ± SD, DAS28-CRP response group No: response at week 24
From the text: (§1) Serum samples and data from eight interventional clinical studies with seven different active treatments for RA or placebo treatment were obtained and analyzed: sirukumab (anti-IL-6) and placebo treatments in SIRROUND-M (NCT01689532; Takeuchi T, et al. Arthritis Res Ther. 2018 Mar. 7; 20(1): 42), SIRROUND-D (NCT01604343; Takeuchi T, et al. Ann Rheum Dis. 2017 Dec.; 76(12): 2001-2008), and SIRROUND-T (NCT01606761; Aletaha D, et al. Lancet. 2017 Mar. 25; 389(10075): 1206-1217); sirukumab and adalimumab (anti-TNF-alpha) treatments in SIRROUND-H (NCT02019472; Taylor PC, et al. Ann Rheum Dis. 2018 May; 77(5): 658-666); golimumab (anti-TNF-alpha) treatment in GO-FURTHER (NCT00973479; Weinblatt ME, et al. Ann Rheum Dis. 2013 March; 72(3): 381-9); guselkumab (anti-IL-23p19), ustekinumab (anti-IL-12/IL-23p40), and placebo treatments in CNTO1275ARA2001 (NCT01645280; Cox JD, et al. […]); JNJ-40346527 (colony-stimulating factor-1 inhibitor) and placebo treatments in 40346527ARA2001 (NCT01597739; Genovese MC, et al. J Rheumatol. 2015 October; 42(10): 1752-60). Plasma samples were obtained from the RA-MAP TACERA study (Cope AP, et al. Nat Rev Rheumatol. 2018 January; 14(1): 53-60) before (baseline) and 6-months after initiation of conventional synthetic disease-modifying anti-rheumatic drugs (csDMARDs). Details of treatment dose groups, concomitant methotrexate use, and previous experience with csDMARDs and biologics are reported in Table 1. The studies were conducted in accordance with the Declaration of Helsinki. The study protocols were reviewed and approved by an independent ethics committee or institutional review board for each study center. Written informed consent was obtained from all patients before study entry. Additional study details and patient characteristics are available in the referenced publications for each study. For SIRROUND-D and SIRROUND-T studies, sets of serum samples from demographically-matched healthy controls were obtained from commercial sources (BioIVT, Westbury, N.Y.).
(§2) Serum samples from baseline (week 0) and the time points indicated in Table 1 were provided for quantification of 1189 serum analytes using the SomaScan v3.1 platform (SomaLogic, Boulder, Colo.; www.somalogic.com), with the exception of RA-MAP TACERA, for which plasma samples were analyzed for 1301 analytes using the SomaScan v3.2 platform. For some studies, a redacted dataset reporting data for a subset of the analytes was obtained. Relative fluorescence unit (RFU) data were sequentially normalized for hybridization controls (internal standards per samples), median signal across all samples (assumes same total protein concentration across sample set), and calibration controls (common sample standards across analysis plates). Samples failed quality control standards defined by Somalogic were excluded from analyses. The normalized RFU values were log2-transformed for subsequent analyses.
(§3) Changes in analyte expression levels were calculated for individual samples as the log2 transform of the ratio of the analyte level at the indicated time point (visit level) over the analyte level at baseline (baseline level) for a given subject, i.e., log 2(visit level/baseline level). Changes in RA disease-associated analytes per sample were summarized using a pharmacodynamic (PD) molecular disease profile (M-DP) score, defined as the median value of the log 2(visit level/baseline level) values for analytes in the defined M-DP analyte set. […] PD M-DP scores in the log 2(visit level/baseline level) scale can be transformed to percent change from baseline, using the transformation: (2^M-DP score−1)×100%.
In selecting the best minimal set of analytes that performs similarly to the full 14-analyte set, analyte sets that results in significant associations between DAS28-CRP EULAR good vs. no response with p<0.05 for each study were prioritized (Table 4). […]

14-analyte M-DP panel = assay: Pharmacodynamic M-DP score, 14-analyte panel (SomaLogic SOMAscan), clinical studies in RA; assay type: in vivo, human; details: for M-DP score mean difference ± SD, Good vs. No / M-DP score mean ± SD, DAS28-CRP response group Good / M-DP score mean ± SD, DAS28-CRP response group Moderate / M-DP score mean ± SD, DAS28-CRP response group No: response at week 24
From the text: as §1, §2, §3
Statistical analyses were performed on log2-transformed data, for either normalized Relative fluorescence unit (RFU) datasets or within-subject fold/baseline datasets. Significance of differences between groups was evaluated using General Linear Models, with t-tests when comparing two groups. […]

[2] = 4-analyte, CNTO1275ARA2001, score at week 4, ustekinumab SC 90 mg or guselkumab SC 50 or 200 mg
[3] = 4-analyte, CNTO1275ARA2001, score at week 28, ustekinumab SC 90 mg or guselkumab SC 50 or 200 mg
[4] = CNTO1275ARA2001, score at week 4, ustekinumab SC 90 mg or guselkumab SC 50 or 200 mg
[5] = CNTO1275ARA2001, score at week 28, ustekinumab SC 90 mg or guselkumab SC 50 or 200 mg
[6] = 4-analyte, SIRROUND-H, score at week 4, sirukumab SC 50 mg q4w or adalimumab SC 40 mg q2w
[7] = SIRROUND-H, score at week 4, sirukumab SC 50 mg q4w or adalimumab SC 40 mg q2w

## ustekinumab [reference compound]
RA patients
  clinical efficacy in the underlying clinical studies: not clinically efficacious
[1]; [2]
  M-DP score mean ± SD, All treated: −0.05 ± 0.77 log2 (fold/baseline)
  M-DP score mean difference ± SD, Good vs. No: −0.81 ± 0.83 (0.0469) log2 (fold/baseline)
  M-DP score mean ± SD, DAS28-CRP response group Good: −0.49 ± 0.27 log2 (fold/baseline)
  M-DP score mean ± SD, DAS28-CRP response group Moderate: 0.06 ± 0.41 log2 (fold/baseline)
  M-DP score mean ± SD, DAS28-CRP response group No: 0.33 ± 0.98 log2 (fold/baseline)
[1]; [3]
  M-DP score mean ± SD, All treated: 0.04 ± 0.84 log2 (fold/baseline)
  M-DP score mean difference ± SD, Good vs. No: −0.94 ± 0.82 (0.0323) log2 (fold/baseline)
  M-DP score mean ± SD, DAS28-CRP response group Good: −0.53 ± 0.68 log2 (fold/baseline)
  M-DP score mean ± SD, DAS28-CRP response group Moderate: −0.04 ± 0.53 log2 (fold/baseline)
  M-DP score mean ± SD, DAS28-CRP response group No: 0.41 ± 0.94 log2 (fold/baseline)
[1]; week 4 M-DP scores
  M-DP score effect size (decrease), EULAR DAS28-CRP good responders: > 1.0 standard deviation
14-analyte M-DP panel; [4]
  M-DP score mean ± SD, All treated: −0.08 ± 0.34 log2 (fold/baseline)
  M-DP score mean difference ± SD, Good vs. No: −0.32 ± 0.32 log2 (fold/baseline)
  M-DP score mean ± SD, DAS28-CRP response group Good: −0.24 ± 0.34 log2 (fold/baseline)
  M-DP score mean ± SD, DAS28-CRP response group Moderate: −0.04 ± 0.29 log2 (fold/baseline)
  M-DP score mean ± SD, DAS28-CRP response group No: 0.08 ± 0.31 [31] log2 (fold/baseline)
14-analyte M-DP panel; [5]
  M-DP score mean ± SD, All treated: −0.09 ± 0.43 log2 (fold/baseline)
  M-DP score mean difference ± SD, Good vs. No: −0.49 ± 0.41 log2 (fold/baseline)
  M-DP score mean ± SD, DAS28-CRP response group Good: −0.34 ± 0.33 log2 (fold/baseline)
  M-DP score mean ± SD, DAS28-CRP response group Moderate: −0.05 ± 0.23 log2 (fold/baseline)
  M-DP score mean ± SD, DAS28-CRP response group No: −0.15 ± 0.49 [13] log2 (fold/baseline)
14-analyte M-DP panel; week 4 or latest time point evaluated (weeks 28, 28, and 12, respectively)
  GMean M-DP scores, change: not decreased

## adalimumab [reference compound]
[1]; [6]
  M-DP score mean ± SD, All treated: −0.43 ± 0.53 log2 (fold/baseline)
  M-DP score mean difference ± SD, Good vs. No: −0.29 ± 0.45 (0.0217) log2 (fold/baseline)
  M-DP score mean ± SD, DAS28-CRP response group Good: −0.58 ± 0.50 log2 (fold/baseline)
  M-DP score mean ± SD, DAS28-CRP response group Moderate: −0.39 ± 0.59 log2 (fold/baseline)
  M-DP score mean ± SD, DAS28-CRP response group No: −0.29 ± 0.37 log2 (fold/baseline)
[1]; 4-analyte, adalimumab, week 4
  M-DP score decrease: 26%
[1]; 4-analyte, week 4
  M-DP score effect size (decrease below zero): 0.8 standard deviations
14-analyte M-DP panel; SIRROUND-H, 4-week treatment, adalimumab SC 40 mg q2w
  M-DP score decrease: 12%
14-analyte M-DP panel; [7]
  M-DP score mean ± SD, All treated: −0.18 ± 0.33 log2 (fold/baseline)
  M-DP score mean difference ± SD, Good vs. No: −0.06 ± 0.33 log2 (fold/baseline)
  M-DP score mean ± SD, DAS28-CRP response group Good: −0.22 ± 0.37 log2 (fold/baseline)
  M-DP score mean ± SD, DAS28-CRP response group Moderate: −0.17 ± 0.33 log2 (fold/baseline)
  M-DP score mean ± SD, DAS28-CRP response group No: −0.14 ± 0.26 [23] * log2 (fold/baseline)
